Assay results taken from patent US11072616B2, “Cyclic peptides targeting alpha-4-beta-7 integrin” (Zealand Pharma A/S, priority 2015, dated 2021).

biological target: T1, integrin α4β7 (Homo sapiens, UniProt P13612+P26010); test: Integrin α4β7—MAdCAM-1 competition assay (ELISA); format: binding; settings: ratio a4b1 ELISA IC50 / a4b7 ELISA IC50
T1 sequence (P13612 34-977 limits assumed): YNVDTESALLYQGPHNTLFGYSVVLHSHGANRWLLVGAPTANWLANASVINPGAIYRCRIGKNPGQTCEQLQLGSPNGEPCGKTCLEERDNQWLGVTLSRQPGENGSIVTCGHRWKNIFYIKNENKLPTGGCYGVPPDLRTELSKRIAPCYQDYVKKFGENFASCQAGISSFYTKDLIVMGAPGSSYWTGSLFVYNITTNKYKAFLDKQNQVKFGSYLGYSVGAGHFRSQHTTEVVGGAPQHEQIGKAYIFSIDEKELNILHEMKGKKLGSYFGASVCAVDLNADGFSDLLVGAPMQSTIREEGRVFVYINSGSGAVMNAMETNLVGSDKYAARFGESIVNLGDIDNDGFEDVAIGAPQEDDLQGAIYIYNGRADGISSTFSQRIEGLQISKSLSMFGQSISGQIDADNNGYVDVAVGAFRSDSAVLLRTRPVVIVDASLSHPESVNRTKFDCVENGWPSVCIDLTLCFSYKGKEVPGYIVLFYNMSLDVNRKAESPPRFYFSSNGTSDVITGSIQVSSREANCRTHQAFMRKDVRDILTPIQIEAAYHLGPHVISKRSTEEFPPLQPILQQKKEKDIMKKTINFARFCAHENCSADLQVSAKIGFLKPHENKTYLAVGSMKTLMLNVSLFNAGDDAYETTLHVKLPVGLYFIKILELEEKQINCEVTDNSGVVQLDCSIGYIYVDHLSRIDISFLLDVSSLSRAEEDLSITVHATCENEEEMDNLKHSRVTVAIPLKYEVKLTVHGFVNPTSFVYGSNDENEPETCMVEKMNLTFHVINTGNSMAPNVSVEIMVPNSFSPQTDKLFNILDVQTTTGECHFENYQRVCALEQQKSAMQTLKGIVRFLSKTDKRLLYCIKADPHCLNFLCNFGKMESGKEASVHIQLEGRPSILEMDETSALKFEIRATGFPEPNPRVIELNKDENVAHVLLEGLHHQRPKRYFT
T1 sequence (P26010 20-723 limits assumed): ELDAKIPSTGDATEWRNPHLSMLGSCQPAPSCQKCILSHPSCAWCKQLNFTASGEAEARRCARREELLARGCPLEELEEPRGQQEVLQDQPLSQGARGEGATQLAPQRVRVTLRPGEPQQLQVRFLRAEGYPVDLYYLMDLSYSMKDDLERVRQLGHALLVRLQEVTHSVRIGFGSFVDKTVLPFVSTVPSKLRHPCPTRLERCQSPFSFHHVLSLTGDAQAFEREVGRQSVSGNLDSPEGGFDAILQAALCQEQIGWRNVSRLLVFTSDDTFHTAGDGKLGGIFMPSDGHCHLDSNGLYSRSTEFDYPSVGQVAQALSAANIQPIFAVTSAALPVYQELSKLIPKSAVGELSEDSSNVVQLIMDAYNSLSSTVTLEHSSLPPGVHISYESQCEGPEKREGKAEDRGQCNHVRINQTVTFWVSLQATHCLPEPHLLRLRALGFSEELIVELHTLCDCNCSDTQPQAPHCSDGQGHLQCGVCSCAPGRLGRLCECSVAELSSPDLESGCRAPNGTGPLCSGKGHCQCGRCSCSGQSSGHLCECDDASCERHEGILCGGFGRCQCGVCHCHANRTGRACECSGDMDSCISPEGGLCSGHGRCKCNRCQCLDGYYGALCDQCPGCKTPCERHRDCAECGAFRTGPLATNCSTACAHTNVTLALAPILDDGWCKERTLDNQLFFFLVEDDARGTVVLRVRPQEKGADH
Description: Integrin α4β7—MAdCAM-1 Competition Assay
The plate was incubated at 4° C. overnight. […] The plate was then incubated for 1 hour at room temperature. The plate was washed three times with wash buffer (50 mM Tris, 100 mM NaCl, 1 mM MnCl2, 0.05% Tween). To each well, 50 μl of compound diluted in assay buffer was added by transfer from a compound serial dilution plate. […] The plate was incubated at room temperature with shaking for 2 hours to reach binding equilibrium. Then the plate was washed three times in wash buffer and 100 μl anti-human IgG Fc specific-horseradish peroxidase (HRP) (Abcam, Ab97225) diluted at 1:2000 in assay buffer was added to each well. The plate was incubated at room temperature for 1 hour under agitation. The plates were then washed three times and 100 μl of 1,3′,5,5′-tetramethylbenxidie (TMB) was then added to each well.

Compared with `CC(C)C[C@@H]1NC(=O)[C@H]2CCCN2C(=O)[C@H](Cc2cc(Br)c(O)c(Br)c2)NC(=O)[C@@H]2CCCN2[C@H](C(=O)NC(C)(C)C)[C@H](C)NC(=O)[C@H]([C@@H](C)O)NC(=O)[C@H](CC(=O)O)NC1=O` [Compound 129], `CC(C)C[C@@H]1NC(=O)[C@H]2CCCN2C(=O)[C@H](Cc2cc(F)c(F)c(F)c2)NC(=O)[C@@H]2CCCN2[C@H](C(=O)NC(C)(C)C)[C@H](C)NC(=O)[C@H]([C@@H](C)O)NC(=O)[C@H](CC(=O)O)NC1=O` [Compound 128] is higher in “Selectivity ELISA” value: 9.7 for the first, 11.4 for the second.

Compared with `C[C@@H]1NC(=O)[C@H]([C@@H](C)O)NC(=O)[C@H](CC(=O)O)NC(=O)[C@H](CC(C)(C)C)NC(=O)[C@H]2CCCCN2C(=O)[C@H](Cc2ccc(O)cc2)NC(=O)[C@@H]2CCCN2[C@@H]1C(=O)NC(C)(C)C` [Compound 150], `CC(C)C[C@@H]1NC(=O)[C@H]2CCCCN2C(=O)[C@H](Cc2ccc(-c3ccccc3)cc2)NC(=O)[C@@H]2CCCN2[C@H](C(=O)NC(C)(C)C)[C@H](C)NC(=O)[C@H]([C@@H](C)O)NC(=O)[C@H](CC(=O)O)NC1=O` [Compound 138] is lower in “Selectivity ELISA” value: 8.2 for the first, 5.0 for the second.

Compared with `CC(C)C[C@@H]1NC(=O)C[C@H](CCCCN)NC(=O)C2(CCNCC2)NC(=O)[C@@H]2CCCN2[C@H](C(=O)NC(C)(C)C)[C@H](C)NC(=O)[C@H]([C@@H](C)O)NC(=O)[C@H](CC(=O)O)NC1=O` [Compound 275], `CC(C)C[C@@H]1NC(=O)[C@@H]2CCN2C(=O)C[C@H](CCCCN)NC(=O)[C@@H]2CCCN2[C@H](C(=O)NC(C)(C)C)[C@H](C)NC(=O)[C@H]([C@@H](C)O)NC(=O)[C@H](CC(=O)O)NC1=O` [Compound 319] is lower in “Selectivity ELISA” value: 7.7 for the first, 4.8 for the second.

Going from `CC(C)C[C@@H]1NC(=O)[C@H](Cc2ccccc2)NC(=O)[C@@H]2C[C@@H](F)CN2[C@H](C(=O)NC(C)(C)C)[C@H](C)NC(=O)[C@H]([C@@H](C)O)NC(=O)[C@H](CC(=O)O)NC1=O` [Compound 45] to `CC(C)C[C@@H]1NC(=O)[C@H](Cc2cccnc2)NC(=O)[C@@H]2C[C@@H](O)CN2[C@H](C(=O)NC(C)(C)C)[C@H](C)NC(=O)[C@H]([C@@H](C)O)NC(=O)[C@H](CC(=O)O)NC1=O` [Compound 44], the “Selectivity ELISA” value falls from 3.2 to 2.3.

Going from `CC[C@@H](C)[C@@H]1NC(=O)[C@H](CC(=O)O)NC(=O)[C@H](CC(C)C)NC(=O)C[C@H](CCCCN)NC(=O)[C@H](Cc2ccc(CN)cc2)NC(=O)[C@@H]2CCCN2[C@H](C(=O)NC(C)(C)C)[C@H](C)NC1=O` [Compound 285] to `CC[C@H](C)[C@@H]1NC(=O)[C@H](CC(=O)O)NC(=O)[C@H](CC(C)C)NC(=O)C[C@H](CCCCN)NC(=O)[C@H](Cc2ccc(CN)cc2)NC(=O)[C@@H]2CCCN2[C@H](C(=O)NC(C)(C)C)[C@H](C)NC1=O` [Compound 215], the “Selectivity ELISA” value rises from 6.2 to 12.4.

Going from `CC(C)C[C@@H]1NC(=O)C[C@H](CCCCN)NC[C@H](Cc2ccc(CN)cc2)NC(=O)[C@@H]2CCCN2[C@H](C(=O)NC(C)(C)C)[C@H](C)NC(=O)[C@H]([C@@H](C)O)NC(=O)[C@H](CC(=O)O)NC1=O` [Compound 218] to `Cc1cccc(C)c1-c1ccc(C[C@@H]2NC(=O)[C@@H]3CCCN3[C@H](C(=O)NC(C)(C)C)[C@H](C)NC(=O)[C@H]([C@@H](C)O)NC(=O)[C@H](CC(=O)O)NC(=O)[C@H](CC(C)C)NC(=O)C[C@H](CCCCN)NC2=O)cc1` [Compound 268], the “Selectivity ELISA” value rises from 16.5 to 24.6.

First: CC(C)C[C@@H]1NC(=O)c2ccc(Br)c(c2)CNC(=O)[C@H](Cc2ccc(O)cc2)NC(=O)[C@@H]2CCCN2[C@H](C(=O)NC(C)(C)C)[C@H](C)NC(=O)[C@H]([C@@H](C)O)NC(=O)[C@H](CC(=O)O)NC1=O [Compound 336]
Second: CC(C)C[C@@H]1NC(=O)c2ccc(-c3cccc(CN)c3)c(c2)CNC(=O)[C@H](Cc2ccc(O)cc2)NC(=O)[C@@H]2CCCN2[C@H](C(=O)NC(C)(C)C)[C@H](C)NC(=O)[C@H]([C@@H](C)O)NC(=O)[C@H](CC(=O)O)NC1=O [Compound 339]
The “Selectivity ELISA” value of the first is lower: 5.6 for the first, 5.8 for the second.

First: CC(C)C[C@@H]1NC(=O)C[C@H](CCCCN)NC(=O)[C@H](Cc2ccccc2-c2ccc(N3CCNCC3)cc2)NC(=O)[C@@H]2CCCN2[C@H](C(=O)NC(C)(C)C)[C@H](C)NC(=O)[C@H]([C@@H](C)O)NC(=O)[C@H](CC(=O)O)NC1=O [Compound 271]
Second: Cc1cccc(C)c1-c1ccccc1C[C@@H]1NC(=O)[C@@H]2CCCN2[C@H](C(=O)NC(C)(C)C)[C@H](C)NC(=O)[C@H]([C@@H](C)O)NC(=O)[C@H](CC(=O)O)NC(=O)[C@H](CC(C)C)NC(=O)C[C@H](CCCCN)NC1=O [Compound 272]
The “Selectivity ELISA” value of the first is lower: 34.6 for the first, 58.1 for the second.

First: CC(C)C[C@@H]1NC(=O)[C@@H](CCCCN)NC(=O)[C@H](Cc2ccc(-c3ccccc3)cc2)NC(=O)[C@@H]2CCCN2[C@H](C(=O)NC(C)(C)C)[C@H](C)NC(=O)[C@H]([C@@H](C)O)NC(=O)[C@H](CC(=O)O)NC1=O [Compound 110]
Second: CC(C)C[C@@H]1NC(=O)C[C@H](CCCCN)NC(=O)[C@H](Cc2ccc(O)cc2)NC(=O)[C@@H]2CCCN2[C@H](C(=O)NC(C)(C)C)[C@H](C)NC(=O)[C@H]([C@@H](C)OCc2ccccc2)NC(=O)[C@H](CC(=O)O)NC1=O [Compound 200]
The “Selectivity ELISA” value of the first is higher: 21.3 for the first, 2.6 for the second.

Compared with `Cc1cccc(C)c1-c1cccc(C[C@@H]2NC(=O)[C@@H]3CCCN3[C@H](C(=O)NC(C)(C)C)[C@H](C)NC(=O)[C@H]([C@@H](C)O)NC(=O)[C@H](CC(=O)O)NC(=O)[C@H](CC(C)C)NC(=O)C[C@H](CCCCN)NC2=O)c1` [Compound 265], `CC(C)C[C@@H]1NC(=O)[C@H](Cc2cccc3ccccc23)NC(=O)[C@@H]2CCCN2[C@H](C(=O)NC(C)(C)C)[C@H](C)NC(=O)[C@H]([C@@H](C)O)NC(=O)[C@H](CC(=O)O)NC1=O` [Compound 9] is lower in “Selectivity ELISA” value: 46.2 for the first, 1.7 for the second.

Going from `CC(C)C[C@@H]1NC(=O)[C@@H](CCCN(C)C)NC(=O)[C@@H]2CCCN2[C@H](C(=O)NC(C)(C)C)[C@H](C)NC(=O)[C@H]([C@@H](C)O)NC(=O)[C@H](CC(=O)O)NC1=O` [Compound 83] to `CC(C)C[C@@H]1NC(=O)CN(C)C(=O)[C@H](Cc2ccc(I)cc2)NC(=O)[C@@H]2CCCN2[C@H](C(=O)NC(C)(C)C)[C@H](C)NC(=O)[C@H]([C@@H](C)O)NC(=O)[C@H](CC(=O)O)NC1=O` [Compound 107], the “Selectivity ELISA” value rises from 6.9 to 16.0.

Compared with `CC(C)C[C@@H]1NC(=O)c2ccc(-c3cccc(CN)c3)c(c2)CNC(=O)[C@@H]2CCCN2[C@H](C(=O)NC(C)(C)C)[C@H](C)NC(=O)[C@H]([C@@H](C)O)NC(=O)[C@H](CC(=O)O)NC1=O` [Compound 382], `C[C@@H]1NC(=O)[C@H]([C@@H](C)O)NC(=O)[C@H](CC(=O)O)NC(=O)[C@H](CC(C)(C)C)NC(=O)c2ccc(-c3ccnc4ccccc34)c(c2)CNC(=O)[C@@H]2CCCN2[C@@H]1C(=O)NC(C)(C)C` [Compound 355] is lower in “Selectivity ELISA” value: 2.0 for the first, 1.4 for the second.
